Measured values: PubChem BioAssay (NCI)
Values joined by “and” are separate entries in the source; they are usually repeats but may differ in a detail not shown here. Identical values can stand only once.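 Interpolation was linear, between the two tested concentrations surrounding the appropriate level; five concentrations were tested over 48 hours in 96-well plates. Abbreviation: GI50, concentration required for 50% inhibition of growth. TGI: concentration producing complete growth inhibition.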

System: OVCAR-8 ovarian
Assay: inhibition of tumour cell growth, NCI panel, 48 h

SMILES | GI50 | TGI
O=C1c2cc3c(cc2-c2c1c1ccc(F)cc1c(=O)n2C[C@H](O)[C@@H](O)[C@H](O)CO)OCO3 | 0.0904 µM | > 100 µM
COc1ccc2[nH]cc(/C=C(/C)c3ccncc3)c2c1 | 7.76 µM | > 100 µM
Nc1c(-c2ccc(Cl)c(Cl)c2)c2ccc([N+](=O)[O-])cc2c(=O)n1-c1nc2ccccc2s1 |  | 17.9 µM
COC(=O)[C@@H](O)[C@](O)(CCC(C)C)C(=O)O[C@@H]1C(OC)=C[C@]23CCCN2CCc2cc4c(cc2[C@H]13)OCO4 |  | 6.51 µM
CC(=O)N1C(C(=O)NC2CCCCC2)CSC1c1ccccc1 (centres undefined) |  | > 100 µM
CC1(C)O[C@H]2OC(CO[Si](C)(C)C(C)(C)C)C(N=[N+]=[N-])[C@H]2O1 (some centres undefined) |  | 38.1 µM
Oc1[nH]c2ccccc2c1N=Nc1nc(-c2ccc(Br)cc2)cs1 |  | 35.8 µM
COc1ccc2cc1Oc1ccc(cc1)C[C@H]1c3cc(c(OC)cc3CCN1C)Oc1c(O)c(OC)cc3c1[C@H](C2)N(C)CC3 |  | 8.43 µM
O=C1CCC2(c3ccc(Cl)cc3)Nc3ccncc3N12 (centres undefined) |  | > 10 µM
Oc1ccc(Cc2cc(Cc3ccc(O)cc3)cc(Cc3ccc(O)cc3)c2)cc1 |  | > 50 µM
Nc1ncnc2c1[nH]c(=O)n2-c1ccccc1 |  | > 100 µM
CC1CN(C)c2ccccc2N=C1NN (centres undefined) |  | > 100 µM
C[C@]12CC[C@H](O)CC1=CC[C@@H]1[C@@H]2CC[C@]2(C)C(=N/N)/C(=N\O)C[C@@H]12 |  | > 100 µM
Cc1ccc(NC(=O)CC2Sc3ccccc3NC2=O)cc1C (centres undefined) |  | > 100 µM
NC(=O)C(=Cn1c(=S)[nH]c2ccc([N+](=O)[O-])cc21)C(N)=O |  | > 100 µM
O=C1C=C[C@@H](COC2OC(CO)C(O)C(O)C2O)O1 (some centres undefined) | 4.61 µM | > 100 µM and 66.5 µM
O=S(=O)(c1ccccc1)c1cccc2c1NCCC2 |  | > 100 µM
COP(=O)(OC)C1=c2c(C)noc2=C2C=COC2C1=O (centres undefined) |  | > 100 µM

System: M14 melanoma
Assay: inhibition of tumour cell growth, NCI panel, 48 h

SMILES | GI50 | TGI
O=C1c2cc3c(cc2-c2c1c1ccc(F)cc1c(=O)n2C[C@H](O)[C@@H](O)[C@H](O)CO)OCO3 | 0.0443 µM | 0.599 µM
Nc1c(-c2ccc(Cl)c(Cl)c2)c2ccc([N+](=O)[O-])cc2c(=O)n1-c1nc2ccccc2s1 |  | > 36.1 µM
CC(=O)N1C(C(=O)NC2CCCCC2)CSC1c1ccccc1 (centres undefined) |  | > 100 µM
CC1(C)O[C@H]2OC(CO[Si](C)(C)C(C)(C)C)C(N=[N+]=[N-])[C@H]2O1 (some centres undefined) |  | 43.9 µM
Oc1[nH]c2ccccc2c1N=Nc1nc(-c2ccc(Br)cc2)cs1 |  | 59.2 µM
O=C1CCC2(c3ccc(Cl)cc3)Nc3ccncc3N12 (centres undefined) |  | > 10 µM
Oc1ccc(Cc2cc(Cc3ccc(O)cc3)cc(Cc3ccc(O)cc3)c2)cc1 |  | > 50 µM
Nc1ncnc2c1[nH]c(=O)n2-c1ccccc1 |  | > 100 µM
CC1CN(C)c2ccccc2N=C1NN (centres undefined) |  | > 100 µM
C[C@]12CC[C@H](O)CC1=CC[C@@H]1[C@@H]2CC[C@]2(C)C(=N/N)/C(=N\O)C[C@@H]12 |  | > 100 µM
Cc1ccc(NC(=O)CC2Sc3ccccc3NC2=O)cc1C (centres undefined) |  | > 100 µM
NC(=O)C(=Cn1c(=S)[nH]c2ccc([N+](=O)[O-])cc21)C(N)=O |  | > 100 µM
c1ccc2c3[nH]c(c2c1)=Nc1ccc(cc1)-c1nc2cc(ccc2o1)N=c1[nH]c(c2ccccc12)=Nc1ccc2nc(oc2c1)-c1ccc(cc1)N=3 |  | > 100 µM
O=S(=O)(c1ccccc1)c1cccc2c1NCCC2 |  | > 100 µM
COP(=O)(OC)C1=c2c(C)noc2=C2C=COC2C1=O (centres undefined) |  | > 100 µM

System: HS 578T breast
Assay: inhibition of tumour cell growth, NCI panel, 48 h

SMILES | TGI
CC(=O)N1C(C(=O)NC2CCCCC2)CSC1c1ccccc1 (centres undefined) | > 100 µM
CC1(C)O[C@H]2OC(CO[Si](C)(C)C(C)(C)C)C(N=[N+]=[N-])[C@H]2O1 (some centres undefined) | 51.5 µM
Oc1[nH]c2ccccc2c1N=Nc1nc(-c2ccc(Br)cc2)cs1 | 65 µM
O=C1CCC2(c3ccc(Cl)cc3)Nc3ccncc3N12 (centres undefined) | > 10 µM
Oc1ccc(Cc2cc(Cc3ccc(O)cc3)cc(Cc3ccc(O)cc3)c2)cc1 | > 50 µM
Nc1ncnc2c1[nH]c(=O)n2-c1ccccc1 | > 100 µM
CC1CN(C)c2ccccc2N=C1NN (centres undefined) | > 100 µM
c1ccc2c3[nH]c(c2c1)=Nc1ccc(cc1)-c1nc2cc(ccc2o1)N=c1[nH]c(c2ccccc12)=Nc1ccc2nc(oc2c1)-c1ccc(cc1)N=3 | > 100 µM
O=S(=O)(c1ccccc1)c1cccc2c1NCCC2 | > 100 µM
COP(=O)(OC)C1=c2c(C)noc2=C2C=COC2C1=O (centres undefined) | > 100 µM

System: 786-0 renal
Assay: inhibition of tumour cell growth, NCI panel, 48 h

SMILES | TGI
Nc1c(-c2ccc(Cl)c(Cl)c2)c2ccc([N+](=O)[O-])cc2c(=O)n1-c1nc2ccccc2s1 | 19.6 µM
CC(=O)N1C(C(=O)NC2CCCCC2)CSC1c1ccccc1 (centres undefined) | > 100 µM
CC1(C)O[C@H]2OC(CO[Si](C)(C)C(C)(C)C)C(N=[N+]=[N-])[C@H]2O1 (some centres undefined) | 32.7 µM
Oc1[nH]c2ccccc2c1N=Nc1nc(-c2ccc(Br)cc2)cs1 | 35.8 µM
O=C1CCC2(c3ccc(Cl)cc3)Nc3ccncc3N12 (centres undefined) | > 10 µM
Oc1ccc(Cc2cc(Cc3ccc(O)cc3)cc(Cc3ccc(O)cc3)c2)cc1 | > 50 µM
Nc1ncnc2c1[nH]c(=O)n2-c1ccccc1 | > 100 µM
CC1CN(C)c2ccccc2N=C1NN (centres undefined) | > 100 µM
C[C@]12CC[C@H](O)CC1=CC[C@@H]1[C@@H]2CC[C@]2(C)C(=N/N)/C(=N\O)C[C@@H]12 | > 100 µM
NC(=O)C(=Cn1c(=S)[nH]c2ccc([N+](=O)[O-])cc21)C(N)=O | > 100 µM
c1ccc2c3[nH]c(c2c1)=Nc1ccc(cc1)-c1nc2cc(ccc2o1)N=c1[nH]c(c2ccccc12)=Nc1ccc2nc(oc2c1)-c1ccc(cc1)N=3 | > 100 µM
O=S(=O)(c1ccccc1)c1cccc2c1NCCC2 | > 100 µM
COP(=O)(OC)C1=c2c(C)noc2=C2C=COC2C1=O (centres undefined) | > 100 µM

System: OVCAR-4 ovarian
Assay: inhibition of tumour cell growth, NCI panel, 48 h

SMILES | GI50 | TGI
O=C1c2cc3c(cc2-c2c1c1ccc(F)cc1c(=O)n2C[C@H](O)[C@@H](O)[C@H](O)CO)OCO3 | 0.185 µM | 0.874 µM
COc1ccc2[nH]cc(/C=C(/C)c3ccncc3)c2c1 | 17.9 µM | > 100 µM
Nc1c(-c2ccc(Cl)c(Cl)c2)c2ccc([N+](=O)[O-])cc2c(=O)n1-c1nc2ccccc2s1 |  | > 100 µM
COC(=O)[C@@H](O)[C@](O)(CCC(C)C)C(=O)O[C@@H]1C(OC)=C[C@]23CCCN2CCc2cc4c(cc2[C@H]13)OCO4 |  | 5.77 µM
CC(=O)N1C(C(=O)NC2CCCCC2)CSC1c1ccccc1 (centres undefined) |  | > 100 µM
CC1(C)O[C@H]2OC(CO[Si](C)(C)C(C)(C)C)C(N=[N+]=[N-])[C@H]2O1 (some centres undefined) |  | 71.7 µM
Oc1[nH]c2ccccc2c1N=Nc1nc(-c2ccc(Br)cc2)cs1 |  | 38.9 µM
COc1ccc2cc1Oc1ccc(cc1)C[C@H]1c3cc(c(OC)cc3CCN1C)Oc1c(O)c(OC)cc3c1[C@H](C2)N(C)CC3 |  | 58.1 µM
O=C1CCC2(c3ccc(Cl)cc3)Nc3ccncc3N12 (centres undefined) |  | > 10 µM
Oc1ccc(Cc2cc(Cc3ccc(O)cc3)cc(Cc3ccc(O)cc3)c2)cc1 |  | > 50 µM
Nc1ncnc2c1[nH]c(=O)n2-c1ccccc1 |  | > 100 µM
CC1CN(C)c2ccccc2N=C1NN (centres undefined) |  | > 100 µM
C[C@]12CC[C@H](O)CC1=CC[C@@H]1[C@@H]2CC[C@]2(C)C(=N/N)/C(=N\O)C[C@@H]12 |  | > 100 µM
Cc1ccc(NC(=O)CC2Sc3ccccc3NC2=O)cc1C (centres undefined) |  | > 100 µM
NC(=O)C(=Cn1c(=S)[nH]c2ccc([N+](=O)[O-])cc21)C(N)=O |  | > 100 µM
O=C1C=C[C@@H](COC2OC(CO)C(O)C(O)C2O)O1 (some centres undefined) | 13.2 µM | 28.2 µM and 33.6 µM
